Assay results from US20080280920A1, “Plasminogen Activator Inhibitor-1 Inhibitors” (priority 2005, published 2008).

Target: T1, wildtype human PAI-1 (Homo sapiens, UniProt P05121)
T1 construct: purchased Molecular Innovations Lot# HWT-804
Experiment: PAI-1/uPA assay (residual uPA activity, fluorescent substrate SpectroFluor)
Format: biochemical
Conditions: for Percent PAI-1 inhibition: at the concentration given, percent of activity of untreated PAI-1; for Conc. of compound required for PAI-1 inhibition: concentration giving the percent inhibition, 6 nM PAI-1, 8 nM uPA; for Conc. of compound required for PAI-1 inhibition (result in words): within the concentration range tested
Protocol: Principle: The assay is based on using a fluorescent substrate (SpectroFluor) to measure residual uPA following inhibition of uPA by PAI-1. PAI-1 used in the assay is pre-treated in the presence of increasing concentrations of the lead compounds to screen for any inhibitory effects on PAI-1. Method: This assay was performed in 96 well microtiter plates. The concentrations of uPA (8 nM) and PAI-1 (6 nM) used in this assay were carefully optimized when using the fluorescent substrate, SpectroFluor™. Stock solutions (10 mM) of all lead compounds were prepared fresh in DMSO. […] 20 μl of 6 nM wildtype human PAI-1 (Molecular Innovations, Lot# HWT-804) was incubated for 15-20 minutes at room temperature in 96 well microtiter plates either with buffer, (50 mM HEPES, 150 mM NaCl, 0.05% Tween-20, 1% BSA, pH 6.6) or various concentrations (10 nM to 100 μM final concentration) of lead compounds in a total volume of 80 μl. A 20 μl aliquot of 8 nM uPA (HMW) solution in 0.05M Tris Buffered™ saline (TBS), pH 8.4 was added to each well and the mixture incubated for an additional 5 minutes at RT. The proteolytic reaction was initiated by addition of 50 μl of 0.1 mM SpectroFluor (Spectrozyme UK Fluorogenic substrate) to each well. The kinetics of the free chromophore, 7-amino-4-methylcoumarin (AMC) released in the course of peptide cleavage by the protease, uPA, was monitored for 30 minutes at 37° C. on a spectrofluorometric microplate reader with an excitation wavelength of 360 nm and emission wavelength of 440 nm. Kinetic data regarding the rate of substrate cleavage by uPA was acquired with Softmax PrO™ software. The difference between the residual uPA activity in the presence or absence of untreated PAI-1, at the molar ratio used, was considered as the “total” PAI-1 activity (100%). The inhibition of uPA by PAI-1 treated with lead compounds was expressed as a percentage of the initial activity of untreated PAI-1. Controls were performed during each experiment to ensure the nearly complete inhibition of uPA by untreated PAI-1 and also to ensure the absence of any direct effect of the lead compounds on uPA alone or on SpectroFluor.

T1 sequence (P05121 24-402): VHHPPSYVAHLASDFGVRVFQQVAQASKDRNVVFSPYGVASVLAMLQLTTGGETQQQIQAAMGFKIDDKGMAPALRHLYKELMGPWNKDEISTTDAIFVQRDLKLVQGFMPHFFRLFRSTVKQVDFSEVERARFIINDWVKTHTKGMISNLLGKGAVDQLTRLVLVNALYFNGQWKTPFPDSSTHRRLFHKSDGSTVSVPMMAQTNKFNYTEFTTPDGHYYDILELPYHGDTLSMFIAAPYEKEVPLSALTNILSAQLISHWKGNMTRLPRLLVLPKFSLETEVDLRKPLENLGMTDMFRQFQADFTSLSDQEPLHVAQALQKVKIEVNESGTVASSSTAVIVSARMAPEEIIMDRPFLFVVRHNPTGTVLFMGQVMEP

| Compound | Percent PAI-1 inhibition | Conc. of compound required for PAI-1 inhibition [µM] | Conc. of compound required for PAI-1 inhibition (result in words) |
| --- | --- | --- | --- |
| Cl.O=C(N[C@@H](Cc1csc2ccccc12)C(=O)O)c1cncc(Br)c1 [Compound Q011265, (S)—N-(5-bromonicotinoyl)-3-(thianaphthen-3-yl)alanine hydrochloride] | 20 | 1 | – |
| CC(C)(C)OC(=O)Nc1ccc(O)c(C(=O)NCCO)c1 [Compound Q012021B, tert-Butyl 4-hydroxy-3-{[(2-hydroxyethyl)amino]carbonyl}phenylcarbamate] | 25 | 10 | – |
| CN1C(=N)N/C(=C\c2csc3ccccc23)C1=O [Compound Q012038] | 35 | 10 | – |
| CCOC(=O)[C@H](Cc1ccccc1)NC(=O)Nc1ccc2c(C)cc(=O)oc2c1 [Compound Q012053, (2S)-2-({[(4-Methyl-2-oxo-2H-chromen-7-yl)amino]carbonyl}amino)-3-phenylpropanoic acid ethyl ester] | 44 | 10 | – |
| CCOC(=O)[C@H](Cc1csc2ccccc12)NC(=O)COc1ccc2c(C)cc(=O)oc2c1 [Compound Q012055, (S)—N-[(4-methyl-2-oxo-2H-chromen-7-yl)oxyacetyl]-3-(thianaphthen-3-yl)alanine ethyl ester] | 51 | 0.05 | – |
| Cc1cc(=O)oc2cc(OCC(=O)N[C@@H](Cc3csc4ccccc34)C(=O)O)ccc12 [Compound Q012055A, (S)—N-[(4-methyl-2-oxo-2H-chromen-7-yl)oxyacetyl]-3-(thianaphthen-3-yl)alanine] | 41 | 1 | – |
| COc1cc(CNCCc2ccccn2)cc(CN2CCN(c3ccccn3)CC2)c1O [Compound Q012119T, 2-Methoxy-4-({[2-(pyridin-2-yl)ethyl]amino}methyl)-6-[(4-pyridin-2-ylpiperazin-1-yl)methyl]phenol] | – | – | No inhibition |
| CCOC(=O)[C@H](Cc1csc2ccccc12)NC(=O)COc1ccc2c(C(F)(F)F)cc(=O)oc2c1 [Compound Q012124, (2S)-2-({[2-oxo-4-(trifluoromethyl)-2H-chromen-7-yl]oxy}acetyl)amino-3-(thianaphthen-3-yl)propanoic acid ethyl ester] | 13 | 0.05 | – |
| O=C(COc1ccc2c(C(F)(F)F)cc(=O)oc2c1)N[C@@H](Cc1csc2ccccc12)C(=O)O [Compound Q012125, (2S)-2-({[2-oxo-4-(trifluoromethyl)-2H-chromen-7-yl]oxy}acetyl)amino-3-(thianaphthen-3-yl)propanoic acid] | – | – | No inhibition |
| CCOC(=O)[C@H](Cc1csc2ccccc12)NC(=O)[C@@H]1CCCN(C(=O)OC(C)(C)C)C1 [Compound Q012126, (2S)-3-(thianaphthen-3-yl)-2-({[(3R)—N-t-butyloxycarbonylpiperidin-3-yl]carbonyl}amino)propanoic acid ethyl ester] | 19 | 50 | – |
| CCOC(=O)[C@H](Cc1csc2ccccc12)NC(=O)[C@@H]1CCCNC1 [Compound Q012127, (2S)-3-(thianaphthen-3-yl)-2-({[(3R)-piperidin-3-yl]carbonyl}amino)propanoic acid ethyl ester] | 13 | 250 | – |
| CC(C)(C)OC(=O)N1CCC[C@@H](C(=O)N[C@@H](Cc2csc3ccccc23)C(=O)O)C1 [Compound Q012128, (2S)-3-(thianaphthen-3-yl)-2-({[(3R)—N-t-butyloxycarbonylpiperidin-3-yl]carbonyl}amino)propanoic acid] | 14.5 | 10 | – |
| O=C(N[C@@H](Cc1csc2ccccc12)C(=O)O)[C@@H]1CCCNC1 [Compound Q012129, (2S)-3-(thianaphthen-3-yl)-2-({[(3R)-piperidin-3-yl]carbonyl}amino)propanoic acid] | 23 | 1 | – |
| N=C(N)N1CCC[C@@H](C(=O)N[C@@H](Cc2csc3ccccc23)C(=O)O)C1 [Compound Q012130, (2S)-3-(thianaphthen-3-yl)-2-({[(3R)—N-[amino(imino)methyl]piperidin-3-yl]carbonyl}amino)propionic acid] | – | – | No inhibition |
| COc1cc(CNCc2ccc(C(=O)O)cc2)cc(CN2CCN(c3ccccn3)CC2)c1O [Compound Q012136] | 15 | 50 | – |
| COc1cc(CNc2ccccn2)cc(CN2CCN(c3ccccn3)CC2)c1O [Compound Q012143] | 22 | 250 | – |
| COc1cc(CNc2ccc(C(=O)O)cc2)cc(CN2CCN(c3ccccn3)CC2)c1O [Compound Q012146] | – | – | No inhibition |
| COc1cc(CN[C@@H](Cc2ccccc2)C(=O)O)cc(CN2CCN(c3ccccn3)CC2)c1O [Compound Q012148] | – | – | No inhibition |
| O=C(O)c1cc(/C=C2\NC(=O)N(Cc3ccccc3)C2=O)ccc1O [Compound Q013012, 5-[(Z)-(1-benzyl-2,5-dioxoimidazolidin-4-ylidene)methyl]-2-hydroxybenzoic acid] | – | – | No inhibition |
| O=C1N/C(=C\c2csc3ccccc23)C(=O)N1Cc1csc2ccccc12 [Compound Q013018] | – | – | No inhibition |
| O=C1N/C(=C\c2c[nH]c3ccccc23)C(=O)N1Cc1ccccc1 [Compound Q013019] | – | – | No inhibition |
| CN(C)CCSc1ccc(/C=C2\NC(=O)N(Cc3ccc(OCc4ccccc4)cc3)C2=O)s1 [Compound Q013021] | 25 | 1 | – |
| COc1cc(/C=C2\NC(=O)N(Cc3ccc(O)cc3)C2=O)cc(CN2CCN(C)CC2)c1O [Compound Q013024] | – | – | No inhibition |
| COc1cc(/C=C/C(=O)CC(=O)/C=C/c2ccc(O)c(OC)c2)ccc1O [Curcumin, curcumin, reference compound] | 22 | 0.5 | – |
